Values of other authors as cited in patent US9459187B2, “Blood collection device containing lysophospholipase inhibitor” (Becton, Dickinson and Company, priority 2011, dated 2016).

How the values were obtained:
[1] = target: acetylcholinesterase (AChE) (Homo sapiens, UniProt P22303); settings: read-out: Ki for AChE
Sequence of acetylcholinesterase (AChE) (P22303 32-614, species assumed): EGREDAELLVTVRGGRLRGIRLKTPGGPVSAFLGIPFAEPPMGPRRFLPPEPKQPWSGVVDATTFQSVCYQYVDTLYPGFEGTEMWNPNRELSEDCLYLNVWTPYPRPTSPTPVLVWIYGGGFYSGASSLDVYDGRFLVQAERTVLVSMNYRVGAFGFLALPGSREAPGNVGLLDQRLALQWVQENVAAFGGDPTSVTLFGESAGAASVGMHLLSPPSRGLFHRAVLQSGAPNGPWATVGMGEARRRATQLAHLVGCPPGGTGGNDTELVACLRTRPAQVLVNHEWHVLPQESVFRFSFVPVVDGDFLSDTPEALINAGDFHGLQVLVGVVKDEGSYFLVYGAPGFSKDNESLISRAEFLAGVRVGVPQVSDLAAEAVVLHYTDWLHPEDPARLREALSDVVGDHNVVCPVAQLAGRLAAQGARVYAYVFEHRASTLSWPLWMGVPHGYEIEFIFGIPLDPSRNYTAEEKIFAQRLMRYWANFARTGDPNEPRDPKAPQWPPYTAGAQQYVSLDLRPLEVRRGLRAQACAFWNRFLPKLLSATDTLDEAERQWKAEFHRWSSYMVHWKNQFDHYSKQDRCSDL

Molecule	half-life in circulation	Ki [1]
GIP(1-42)	about 5 minutes	–
ghrelin: 28-amino acid peptide having the sequence NH2-GSSFLSPEHQRVQQRKESKKPPAKLQPR-COOH (H-GSSFLSPEHQRVQQRKESKKPPAKLQPR-OH; ends and bridges not checked)	about 30 minutes	–
CCC1=CC2Cc3nc4cc(Cl)ccc4c(N)c3[C@H](C1)C2 [Huprine X, (1S)-7-chloro-15-ethyl-10-azatetracyclo[11.3.1.0^{2,11}.0^{4,9}]heptadeca-2(11),3,5,7,9,14-hexaen-3-amine]	–	0.026 nM
glucagon: 29-amino acid peptide involved in carbohydrate metabolism	8 to 18 min	–
